# Reference: PMC5218480 (PLoS ONE, 2017)
# Test system: MV-4-11 cells
# Experiment: Gene expression microarray analysis (Affymetrix PrimeView) and GSEA
# Assay type: cell-based, human
# Set-up: RFU PODN (11730768_x_at) / Fold change /veh PODN (11730768_x_at) / RFU LINC00158 (11744669_a_at) / Fold change /veh LINC00158 (11744669_a_at) / RFU DUSP10 (11751237_a_at) / Fold change /veh DUSP10 (11751237_a_at) / RFU ID3 (11757404_x_at) / Fold change /veh ID3 (11757404_x_at) / RFU PLEKHG5 (11737974_s_at) / Fold change /veh PLEKHG5 (11737974_s_at) / RFU LRRC4B (11730491_at) / Fold change /veh LRRC4B (11730491_at) / RFU GIMAP4 (11747438_a_at) / Fold change /veh GIMAP4 (11747438_a_at) / RFU KRT8 (11758183_x_at) / Fold change /veh KRT8 (11758183_x_at) / RFU CNN1 (11734310_a_at) / Fold change /veh CNN1 (11734310_a_at) / RFU VPS37D (11726825_at) / Fold change /veh VPS37D (11726825_at) / RFU C10orf10 (11716522_x_at) / Fold change /veh C10orf10 (11716522_x_at) / RFU KIR2DL2 /// KIR2DL4 /// KIR2DL5A /// KIR2DL5B /// KIR2DS1 /// KIR2DS2 /// KIR2DS3 /// KIR2DS4 /// KIR3DL3 /// KIR3DL3 /// KIR3DS1 (11738374_at) / Fold change /veh KIR2DL2 /// KIR2DL4 /// KIR2DL5A /// KIR2DL5B /// KIR2DS1 /// KIR2DS2 /// KIR2DS3 /// KIR2DS4 /// KIR3DL3 /// KIR3DL3 /// KIR3DS1 (11738374_at) / RFU C1QL1 (11718748_at) / Fold change /veh C1QL1 (11718748_at) / RFU TMPRSS4 (11747572_a_at) / Fold change /veh TMPRSS4 (11747572_a_at) / RFU HAMP (11756126_x_at) / Fold change /veh HAMP (11756126_x_at) / RFU RNFT2 (11725882_a_at) / Fold change /veh RNFT2 (11725882_a_at) / RFU NR4A2 (11747474_a_at) / Fold change /veh NR4A2 (11747474_a_at) / RFU ABCC12 (11746883_a_at) / Fold change /veh ABCC12 (11746883_a_at) / RFU TMEM136 (11760407_x_at) / Fold change /veh TMEM136 (11760407_x_at) / RFU CLDN22 /// WWC2 (11732394_at) / Fold change /veh CLDN22 /// WWC2 (11732394_at) / RFU HLA-DPB1 (11760878_x_at) / Fold change /veh HLA-DPB1 (11760878_x_at) / RFU SPINT1 (11716480_a_at) / Fold change /veh SPINT1 (11716480_a_at) / RFU GAP43 (11754022_s_at) / Fold change /veh GAP43 (11754022_s_at) / RFU A4GNT (11735810_at) / Fold change /veh A4GNT (11735810_at) / RFU PRB3 (11715151_x_at) / Fold change /veh PRB3 (11715151_x_at) / RFU TUBB4B (11761932_at) / Fold change /veh TUBB4B (11761932_at) / RFU CAPN14 (11732068_a_at) / Fold change /veh CAPN14 (11732068_a_at) / RFU TMCC2 (11721928_a_at) / Fold change /veh TMCC2 (11721928_a_at) / RFU IRGQ (11745062_a_at) / Fold change /veh IRGQ (11745062_a_at) / RFU FAM174B (11720279_a_at) / Fold change /veh FAM174B (11720279_a_at) / RFU TMPRSS4 (11748680_a_at) / Fold change /veh TMPRSS4 (11748680_a_at) / RFU FAM212B (11763350_a_at) / Fold change /veh FAM212B (11763350_a_at) / RFU PLEKHG5 (11743358_a_at) / Fold change /veh PLEKHG5 (11743358_a_at) / RFU ZSCAN30 (11745921_a_at) / Fold change /veh ZSCAN30 (11745921_a_at) / RFU CMKLR1 (11741424_a_at) / Fold change /veh CMKLR1 (11741424_a_at) / RFU LOC101060620 /// MAPK8IP1 (11723275_at) / Fold change /veh LOC101060620 /// MAPK8IP1 (11723275_at) / RFU SPTSSB (11747773_x_at) / Fold change /veh SPTSSB (11747773_x_at) / RFU PRSS12 (11739890_at) / Fold change /veh PRSS12 (11739890_at) / RFU BIN1 (11741810_x_at) / Fold change /veh BIN1 (11741810_x_at) / RFU WNT11 (11732464_a_at) / Fold change /veh WNT11 (11732464_a_at) / RFU C10orf10 (11716521_a_at) / Fold change /veh C10orf10 (11716521_a_at) / RFU C5orf56 (11738089_at) / Fold change /veh C5orf56 (11738089_at) / RFU CYB561 (11721691_x_at) / Fold change /veh CYB561 (11721691_x_at) / RFU ANKRD19P (11752326_a_at) / Fold change /veh ANKRD19P (11752326_a_at) / RFU OR2T12 /// OR2T33 /// OR2T8 (11738714_s_at) / Fold change /veh OR2T12 /// OR2T33 /// OR2T8 (11738714_s_at) / RFU VCAN (11748164_a_at) / Fold change /veh VCAN (11748164_a_at) / RFU JSRP1 (11732532_at) / Fold change /veh JSRP1 (11732532_at) / RFU KRTAP10-11 (11738290_x_at) / Fold change /veh KRTAP10-11 (11738290_x_at) / RFU MYO3A (11730013_a_at) / Fold change /veh MYO3A (11730013_a_at) / RFU EBF3 (11725865_a_at) / Fold change /veh EBF3 (11725865_a_at) / RFU CAMK2N1 (11719241_x_at) / Fold change /veh CAMK2N1 (11719241_x_at) / RFU C5orf56 (11738088_a_at) / Fold change /veh C5orf56 (11738088_a_at) / RFU OLFML3 (11715873_a_at) / Fold change /veh OLFML3 (11715873_a_at) / RFU LOC100653217 /// NTM (11731650_a_at) / Fold change /veh LOC100653217 /// NTM (11731650_a_at) / RFU MAPK11 (11762145_a_at) / Fold change /veh MAPK11 (11762145_a_at) / RFU FIZ1 (11724087_x_at) / Fold change /veh FIZ1 (11724087_x_at) / RFU OASL (11726364_x_at) / Fold change /veh OASL (11726364_x_at) / RFU SOX15 (11748057_x_at) / Fold change /veh SOX15 (11748057_x_at) / RFU CD79A (11719716_a_at) / Fold change /veh CD79A (11719716_a_at) / RFU HIST1H1D (11736915_at) / Fold change /veh HIST1H1D (11736915_at) / RFU CASKIN2 (11723855_a_at) / Fold change /veh CASKIN2 (11723855_a_at) / RFU LOC730098 (11760151_x_at) / Fold change /veh LOC730098 (11760151_x_at) / RFU OR4N2 (11742367_at) / Fold change /veh OR4N2 (11742367_at) / RFU PRRT2 (11749266_a_at) / Fold change /veh PRRT2 (11749266_a_at) / RFU SNX32 (11753110_a_at) / Fold change /veh SNX32 (11753110_a_at) / RFU CDHR5 (11726645_a_at) / Fold change /veh CDHR5 (11726645_a_at) / RFU RCAN1 (11760418_a_at) / Fold change /veh RCAN1 (11760418_a_at) / RFU FAM167A (11723789_a_at) / Fold change /veh FAM167A (11723789_a_at) / RFU FAM26E (11764081_at) / Fold change /veh FAM26E (11764081_at) / RFU ISYNA1 (11749810_s_at) / Fold change /veh ISYNA1 (11749810_s_at) / RFU ACY1 (11761880_at) / Fold change /veh ACY1 (11761880_at) / RFU 11764098_at / Fold change /veh 11764098_at / RFU SAMD14 (11745864_x_at) / Fold change /veh SAMD14 (11745864_x_at) / RFU NPB (11741838_a_at) / Fold change /veh NPB (11741838_a_at) / RFU TMPRSS6 (11731388_a_at) / Fold change /veh TMPRSS6 (11731388_a_at) / RFU KRTAP10-2 (11738614_at) / Fold change /veh KRTAP10-2 (11738614_at) / RFU ARHGAP8 /// PRR5-ARHGAP8 (11727945_x_at) / Fold change /veh ARHGAP8 /// PRR5-ARHGAP8 (11727945_x_at) / RFU KRTAP5-7 /// NADSYN1 (11734609_at) / Fold change /veh KRTAP5-7 /// NADSYN1 (11734609_at) / RFU RASL12 (11751679_a_at) / Fold change /veh RASL12 (11751679_a_at) / RFU CDKN2B (11736163_a_at) / Fold change /veh CDKN2B (11736163_a_at) / RFU PRF1 (11729649_at) / Fold change /veh PRF1 (11729649_at) / RFU, ZNF638 /// ZNF638-IT1 / Fold change vs veh, ZNF638 /// ZNF638-IT1 / RFU, PANK3 / Fold change vs veh, PANK3 / RFU, SH3YL1 / Fold change vs veh, SH3YL1 / RFU, ZEB2 / Fold change vs veh, ZEB2 / RFU, NRIP1 / Fold change vs veh, NRIP1 / RFU, PTTG1IP / Fold change vs veh, PTTG1IP / RFU, CAPN2 / Fold change vs veh, CAPN2 / RFU, MED14 / Fold change vs veh, MED14 / RFU, SNORA58 / Fold change vs veh, SNORA58 / RFU, C1orf63 / Fold change vs veh, C1orf63 / RFU, LRRFIP1 / Fold change vs veh, LRRFIP1 / RFU, NDUFAF7 / Fold change vs veh, NDUFAF7 / RFU, SLC12A2 / Fold change vs veh, SLC12A2 / RFU, IBTK / Fold change vs veh, IBTK / RFU, ESF1 / Fold change vs veh, ESF1 / Fold change vs veh, TMEM50B / RFU, TAOK1 / Fold change vs veh, TAOK1 / RFU, ACBD3 / Fold change vs veh, ACBD3 / RFU, TMA16 / Fold change vs veh, TMA16 / RFU, RWDD3 / Fold change vs veh, RWDD3 / RFU, BCAT1 / Fold change vs veh, BCAT1 / RFU, EDEM3 / Fold change vs veh, EDEM3 / RFU, TMEM33 / Fold change vs veh, TMEM33 / RFU, WDR75 / Fold change vs veh, WDR75 / RFU, AHCTF1 / Fold change vs veh, AHCTF1 / RFU, TFRC / Fold change vs veh, TFRC / RFU, ZDHHC17 / Fold change vs veh, ZDHHC17 / RFU, NOM1 / Fold change vs veh, NOM1 / RFU, ARL8B / Fold change vs veh, ARL8B / RFU, ZBTB11 / Fold change vs veh, ZBTB11 / RFU, TAMM41 / Fold change vs veh, TAMM41 / RFU, KIAA1704 /// LOC100996395 / Fold change vs veh, KIAA1704 /// LOC100996395 / RFU, ING1 / Fold change vs veh, ING1 / RFU, TRMT61B / Fold change vs veh, TRMT61B / RFU, FUBP3 / Fold change vs veh, FUBP3 / RFU, TP53 / Fold change vs veh, TP53 / RFU, TNKS2 / Fold change vs veh, TNKS2 / RFU, ZFP14 / Fold change vs veh, ZFP14 / RFU, ACTR2 / Fold change vs veh, ACTR2 / RFU, PPP3R1 / Fold change vs veh, PPP3R1 / RFU, PIK3R1 / Fold change vs veh, PIK3R1 / RFU, HNRNPA1 / Fold change vs veh, HNRNPA1 / RFU, RNF170 / Fold change vs veh, RNF170 / RFU, ZNF28 / Fold change vs veh, ZNF28 / RFU, RNGTT / Fold change vs veh, RNGTT / RFU, OGT / Fold change vs veh, OGT / RFU, BRD1 / Fold change vs veh, BRD1 / RFU, MARS / Fold change vs veh, MARS / RFU, ZNF655 / Fold change vs veh, ZNF655 / RFU, FAHD1 / Fold change vs veh, FAHD1 / RFU, BDP1 / Fold change vs veh, BDP1 / RFU, LRRCC1 / Fold change vs veh, LRRCC1 / RFU, ARID1A / Fold change vs veh, ARID1A / RFU, ZNF146 / Fold change vs veh, ZNF146 / RFU, ZNF330 / Fold change vs veh, ZNF330 / RFU, GPN3 / Fold change vs veh, GPN3 / RFU, C9orf123 / Fold change vs veh, C9orf123 / RFU, N4BP2L2 / Fold change vs veh, N4BP2L2 / RFU, ARFIP1 / Fold change vs veh, ARFIP1 / RFU, FAM179B / Fold change vs veh, FAM179B / RFU, BCL10 / Fold change vs veh, BCL10 / RFU, UHRF1BP1L / Fold change vs veh, UHRF1BP1L / RFU, BET1 / Fold change vs veh, BET1 / RFU, CNOT2 / Fold change vs veh, CNOT2 / RFU, ZNF268 / Fold change vs veh, ZNF268 / Fold change vs veh, ZNF507 / RFU, DGCR2 / Fold change vs veh, DGCR2 / RFU, WDSUB1 / Fold change vs veh, WDSUB1 / Fold change vs veh, HSP90B1 /// MIR3652 / RFU, ADSS / Fold change vs veh, ADSS / RFU, GK / Fold change vs veh, GK / RFU, ZNF148 / Fold change vs veh, ZNF148 / RFU, TAF9 / Fold change vs veh, TAF9 / RFU, SLC1A5 / Fold change vs veh, SLC1A5 / RFU, SLMO2 / Fold change vs veh, SLMO2 / RFU, ABCC4 / Fold change vs veh, ABCC4 / RFU, LOC101060439 /// RAP1B / Fold change vs veh, LOC101060439 /// RAP1B / RFU, RFX7 / Fold change vs veh, RFX7 / RFU, GTPBP10 / Fold change vs veh, GTPBP10 / RFU, CNEP1R1 / Fold change vs veh, CNEP1R1 / RFU, BIVM-ERCC5 /// ERCC5 / Fold change vs veh, BIVM-ERCC5 /// ERCC5 / RFU, ILF3 / Fold change vs veh, ILF3 / RFU 11762660_at / Fold change /veh 11762660_at / RFU VCAN (11757783_s_at) / Fold change /veh VCAN (11757783_s_at) / RFU DDX43 (11728927_at) / Fold change /veh DDX43 (11728927_at) / RFU KRT8 (11758188_x_at) / Fold change /veh KRT8 (11758188_x_at) / RFU NKD1 (11759106_at) / Fold change /veh NKD1 (11759106_at) / RFU SRD5A1 (11742802_a_at) / Fold change /veh SRD5A1 (11742802_a_at) / RFU TPSAB1 /// TPSB2 (11721975_s_at) / Fold change /veh TPSAB1 /// TPSB2 (11721975_s_at) / RFU GSTM3 (11746129_a_at) / Fold change /veh GSTM3 (11746129_a_at) / RFU IL23R (11737362_x_at) / Fold change /veh IL23R (11737362_x_at) / RFU TMEM51 (11727254_a_at) / Fold change /veh TMEM51 (11727254_a_at) / RFU PIWIL2 (11732686_x_at) / Fold change /veh PIWIL2 (11732686_x_at) / RFU ORM1 (11744905_x_at) / Fold change /veh ORM1 (11744905_x_at) / RFU CCDC152 (11743942_at) / Fold change /veh CCDC152 (11743942_at) / RFU ECM1 (11717891_a_at) / Fold change /veh ECM1 (11717891_a_at) / RFU IL23R (11748794_a_at) / Fold change /veh IL23R (11748794_a_at) / RFU TNFAIP8L3 (11732012_x_at) / Fold change /veh TNFAIP8L3 (11732012_x_at) / RFU MBOAT4 (11741988_at) / Fold change /veh MBOAT4 (11741988_at) / RFU 11764193_at / Fold change /veh 11764193_at / RFU TMEM53 (11763286_at) / Fold change /veh TMEM53 (11763286_at) / RFU MAGEB2 (11727129_at) / Fold change /veh MAGEB2 (11727129_at) / RFU TMEM200A (11744735_a_at) / Fold change /veh TMEM200A (11744735_a_at) / RFU CCDC152 (11751479_a_at) / Fold change /veh CCDC152 (11751479_a_at) / RFU FAM211A (11726209_a_at) / Fold change /veh FAM211A (11726209_a_at) / RFU RGS16 (11746705_a_at) / Fold change /veh RGS16 (11746705_a_at) / RFU VCAN (11755009_s_at) / Fold change /veh VCAN (11755009_s_at) / RFU RHOB (11743442_s_at) / Fold change /veh RHOB (11743442_s_at) / RFU RGS16 (11720943_a_at) / Fold change /veh RGS16 (11720943_a_at) / RFU RGS16 (11720944_at) / Fold change /veh RGS16 (11720944_at) / RFU, VPS4B / Fold change vs veh, VPS4B / RFU, CREB1 / Fold change vs veh, CREB1 / RFU, DNAJC13 / Fold change vs veh, DNAJC13 / RFU, GNAQ / Fold change vs veh, GNAQ / RFU, CDK5R1 / Fold change vs veh, CDK5R1 / RFU, ZRANB3 / Fold change vs veh, ZRANB3 / RFU, CUL4A / Fold change vs veh, CUL4A / RFU, CCNY / Fold change vs veh, CCNY / RFU, UFL1 / Fold change vs veh, UFL1 / RFU, COG3 / Fold change vs veh, COG3 / RFU, DIAPH2 / Fold change vs veh, DIAPH2 / RFU, SKA2 / Fold change vs veh, SKA2 / RFU, AFF3 / Fold change vs veh, AFF3 / RFU, LMF1 / Fold change vs veh, LMF1 / RFU, IPO11 / Fold change vs veh, IPO11 / RFU, DFFB / Fold change vs veh, DFFB / RFU, FOXP1 / Fold change vs veh, FOXP1 / RFU, CARD8 / Fold change vs veh, CARD8 / RFU, STRN3 / Fold change vs veh, STRN3 / RFU, ADK / Fold change vs veh, ADK / RFU, RASSF2 / Fold change vs veh, RASSF2 / RFU, WIPF1 / Fold change vs veh, WIPF1 / RFU, LARP1B / Fold change vs veh, LARP1B / RFU, RASA1 / Fold change vs veh, RASA1 / RFU, RB1 / Fold change vs veh, RB1 / RFU, PPFIA1 / Fold change vs veh, PPFIA1 / RFU, MAT2A / Fold change vs veh, MAT2A / RFU, CCT5 / Fold change vs veh, CCT5 / RFU, WDR92 / Fold change vs veh, WDR92 / RFU, CUX1 / Fold change vs veh, CUX1 / RFU, TTC7A / Fold change vs veh, TTC7A / RFU, TMEM135 / Fold change vs veh, TMEM135 / RFU, DEPTOR / Fold change vs veh, DEPTOR / RFU, CPM / Fold change vs veh, CPM / RFU, DNAJB6 / Fold change vs veh, DNAJB6 / RFU, CACNA2D3 / Fold change vs veh, CACNA2D3 / RFU, DTX4 / Fold change vs veh, DTX4 / RFU, TFCP2 / Fold change vs veh, TFCP2 / RFU, GMCL1 /// GMCL1P1 / Fold change vs veh, GMCL1 /// GMCL1P1 / RFU, AEBP2 / Fold change vs veh, AEBP2 / RFU, SNHG1 /// SNORD22 /// SNORD25 /// SNORD26 /// SNORD27 /// SNORD28 /// SNORD29 /// SNORD31 / Fold change vs veh, SNHG1 /// SNORD22 /// SNORD25 /// SNORD26 /// SNORD27 /// SNORD28 /// SNORD29 /// SNORD31 / Fold change (Aza/veh), C12orf56 (ProbeSet 11735607_a_at) / Fold change (ACY-1035/veh), C12orf56 (ProbeSet 11735607_a_at) / Fold change (Aza/veh), FGFR1OP (ProbeSet 11751329_s_at) / Fold change (ACY-1035/veh), FGFR1OP (ProbeSet 11751329_s_at) / Fold change (Aza/veh), VPS36 (ProbeSet 11739960_a_at) / Fold change (ACY-1035/veh), VPS36 (ProbeSet 11739960_a_at) / RFU SYPL1 (11715823_x_at) / Fold change /veh SYPL1 (11715823_x_at) / RFU IGFBP7 (11715501_s_at) / Fold change /veh IGFBP7 (11715501_s_at) / RFU REEP3 (11722064_at) / Fold change /veh REEP3 (11722064_at) / RFU IGLL1 (11728026_x_at) / Fold change /veh IGLL1 (11728026_x_at): dose or concentration left out as unconfirmed
# Details: MV-4-11 cells, 48 hours
smiles,measurement,value
Nc1ccc(-c2cccs2)cc1NC(=O)c1ccc2c(c1)cc(C1CC1)n2CCN1CCOCC1 [ACY-1035],Fold change /veh A4GNT (11735810_at),1.01
